No end group written: not given here.
How the values were obtained:
cell viability = experiment: CytoTox ONE cell viability assay; format: cell-based; conditions: 2.5 μM peptide
Description: Delivery of siRNAs was tested in 7 different cell lines we obtained from the American Type Culture Collection, ATCC, via LCG Promochem GmbH, Wesel, Germany (PC12, ATTC# CRL-1721; HCT116, ATCC# CCL-247; C33A, ATCC# HTB-31; H441, ATCC# HTB-174; NMuLi, ATCC# CRL-1638; HepG2, ATCC# HB-8065; HeLa S3, ATCC# CCL2.2) and in the cell line KB-BCL2-GFP, as described in co-pending U.S. Ser. No. 10/941,663. Target mRNA quantification was performed using the QuantiGene™ bDNA-kit from Panomics, Inc., Fremont, USA, according to the manufacturers instructions, and essentially as described below for H441 cells. Genes constitutively expressed in the various cell lines were chosen as targets and results normalized to GAPDH expression. siRNA concentration was 250 nM, the concentration of the peptide was chosen as given by the molar ratio peptide/siRNA shown in Table 1. Cytotoxicity of peptides was evaluated employing the CytoTox-ONE™ assay (Promega GmbH, Mannheim, Germany).
Potential cytotoxic effects as mediator of inhibition were ruled out by determining cell viability in the presence of 2.5 μM of ppTG20, AP-0, AP-1, AP-27, AP-30, AP32 and AP-34 using the CytoTox ONE™ assay (Promega GmbH, Mannheim, Germany).

[1] = system: E6AP mRNA in HCT116 cells; experiment: siRNA AD-8724 delivery into HCT116 cells, inhibition of E6AP mRNA expression by bDNA assay; format: cell-based, human
Description: All further experiments were carried out using HCT116 cells and inhibition of E6AP expression as readout.
HCT116-cells were obtained from the American Type Culture Collection (ATCC# CCL-247). They were cultured in McCoy's 5A medium (Biochrom AG, Berlin, Germany, Cat.# F1015) containing 10% fetal calf serum (FCS; Biochrom AG, Berlin, Germany, Cat.# S0115) and 2 mM L-Glutamin (Biochrom AG, Berlin, Germany, Cat.#: K0283) (standard growth medium). For incubation with peptide/siRNA, complexes, the medium was replaced by serum-free McCoy's 5A medium containing 2 mM L-Glutamin (serum free medium). After incubation with complexes for 4 h, McCoy's 5A medium containing 30% fetal calf serum and 2 mM L-Glutamin (triple FCS medium) was added to restore an overall 10% FCS in the medium.
The E6AP-specific siRNA denoted AD-8724 herein was used, having the following sequences: antisense strand: 5′-ucacauuccacguuaggugTsT-3′ (SEQ ID NO:51), sense strand 5′-caccuaacguggaaugugaTsT-3′; (SEQ ID NO:52; lower case letters: ribonucleotides; s: phosphorothioate backbone linkage). As a negative control, an siRNA specific for eGFP, denoted AD-5107 herein, was used, having the following sequences: antisense strand: 5′-aagucgugcugcuucauguggOMesuOMesc-3′ (SEQ ID NO:19), sense strand 5′-[…]-3′ (SEQ ID NO:18; lower case letters: ribonucleotides; subscript OMe: 2′-O-methyl-ribonucleotide; s: phosphorothioate backbone linkage). In addition to the non-specific control siRNA AD-5107, mock transfected cells treated with standard growth medium only were used as negative controls. As a positive control, AD-8724 was transfected into the cells using Lipofectamine2000™ (Invitrogen, Karlsruhe, Germany, Cat. No. 11668-019). As a further control, AD-5107 was transfected into cells using Lipofectamine2000™. All assays were performed in quadruplicates.
SiRNA/peptide complexes were prepared by mixing a solution of the siRNA in deionized water with a solution of the peptide in deionized water at the appropriate concentrations to give the desired ratio of siRNA/peptide at the desired concentration of the complex. The mixture was incubated at room temperature for 30 min and kept at 4° C. until use, and used within 24 h.
For transfections with siRNA/peptide complexes, 1.5×10^5 HCT116-cells per well in 150 μl standard growth medium were seeded into polystyrene 96 well plates and grown for 24 h at 37° C. in an atmosphere containing 5% CO2. The medium was removed by aspiration, and 90 μl serum-free medium and 10 μl of siRNA/peptide complex solution were added. Cells were incubated for 4 h at 37° C./5% CO2, 50 μl triple FCS medium were added, and the cells incubated for another 20 h under identical conditions. Subsequently, E6AP mRNA content was determined as described below.
For Lipofectamine2000™ transfections, 0.5 μl Lipofectamine2000™ were mixed with 12 μl OptiMem™ (Invitrogen, Karlsruhe, Germany, Cat. No. 11058-021) and incubated for 15 min. 1 μl of a 5 μM solution of the respective siRNA in PBS (Biochrom AG, Berlin, Germany, Cat-No: L182-05) were added to 11.5 μl OptiMeM™, mixed with the Lipofectamine2000™/OptiMem™ solution, and incubated for further 15 min. 1.5×10^5 HCT116-cells per well in 150 μl standard growth medium were grown for 24 h as described above, the growth medium removed from the cells by aspiration, and 75 μl fresh standard growth medium and the 25 μl of the siRNA/Lipofectamine2000™ mix were added to the well, to give a final siRNA concentration of 50 nM. The cells were incubated for 24 h at 37° C./5% CO2 and E6AP mRNA concentration determined.
The QuantiGene™ bDNA-kit from Panomics, Inc., Fremont, USA, was used according to manufacturer's instructions. Briefly, cells were lysed by adding 50 μl of Lysis Mixture (from QuantiGene bDNA-kit) to each well and incubation at 53° C. for 1 h. […]

eGFP-mRNA = experiment: Influence of peptide/siRNA ratio on siRNA activity in HCT116 cells; format: cell-based; conditions: 250 nM siRNA
Description: The optimal ratio of (peptide):(anionic substance) for complex formation, was determined in section 3 above to lie in the range of 8:1 to 13:1 by titrating a fixed concentration of the anionic substance with increasing amounts of the peptide, and monitoring complex formation by electrophoresis of the mixture. To further validate and possibly narrow down the optimum ratio of peptide/anionic substance, an assay with a functional readout was performed. HCT116 cells were incubated with siRNA complexes as described above at concentrations such that the amount of siRNA in the incubation mixture corresponds to a 250 nM concentration of the siRNA, and the peptide/siRNA ratio was 8:1, 10:1, 12:1, or 14:1.

[2] = siRNA AD-8724 250 nM, molar peptide/siRNA ratio 12.5:1
[3] = AD-8724, siRNA/peptide conc. 25 nM/250 nM
[4] = AD-8724, siRNA/peptide conc. 250 nM/2.5 μM
[5] = AD-8724, siRNA/peptide conc. 1 μM/10 μM

HHHHHRLFRALLRLLRSLWRLLLRA [AP-30]
cell viability (cell viability): None of these peptides led to a significant alteration of cell viability

HHHHHRLFRALLRLLRSLWRLLLRAHHHHH [AP-32]
cell viability (cell viability): None of these peptides led to a significant alteration of cell viability

HLFRALHRLLRHLWRLLHRA [AP-12]
remaining E6AP mRNA (in % of mock) [1, 2]: 94 ± 31%

HLFRALLRLLRHLWRLLHRA [AP-11]
remaining E6AP mRNA (in % of mock) [1, 2]: 62 ± 15% | Remaining eGFP-mRNA in % of mock-transfected controls (eGFP-mRNA; peptide/siRNA ratio 8:1): 27 ± 5% | Remaining eGFP-mRNA in % of mock-transfected controls (eGFP-mRNA; peptide/siRNA ratio 10:1): 30 ± 8% | Remaining eGFP-mRNA in % of mock-transfected controls (eGFP-mRNA; peptide/siRNA ratio 12:1): 30 ± 5% | Remaining eGFP-mRNA in % of mock-transfected controls (eGFP-mRNA; peptide/siRNA ratio 14:1): 24 ± 5%

HLFRALLRLLRHLWRLLLRAHHHHH [AP-29]
remaining E6AP mRNA (in % of mock) [1, 3]: 58 ± 8% | remaining E6AP mRNA (in % of mock) [1, 4]: 16 ± 2% | remaining E6AP mRNA (in % of mock) [1, 5]: 11 ± 1%

HLFRALLRLLRSLWRLLHRA [AP-9]
remaining E6AP mRNA (in % of mock) [1, 2]: 53 ± 17% | Remaining eGFP-mRNA in % of mock-transfected controls (eGFP-mRNA; peptide/siRNA ratio 8:1): 38 ± 6% | Remaining eGFP-mRNA in % of mock-transfected controls (eGFP-mRNA; peptide/siRNA ratio 10:1): 31 ± 3% | Remaining eGFP-mRNA in % of mock-transfected controls (eGFP-mRNA; peptide/siRNA ratio 12:1): 22 ± 1% | Remaining eGFP-mRNA in % of mock-transfected controls (eGFP-mRNA; peptide/siRNA ratio 14:1): 36 ± 7%

HLFRALRRLLRHLWRLLRRA [AP-13]
remaining E6AP mRNA (in % of mock) [1, 2]: 59 ± 7%

HLFRHLLRLLRHLWRHLLRA [AP-15]
remaining E6AP mRNA (in % of mock) [1, 2]: 77 ± 39% | Remaining eGFP-mRNA in % of mock-transfected controls (eGFP-mRNA; peptide/siRNA ratio 8:1): 32 ± 5% | Remaining eGFP-mRNA in % of mock-transfected controls (eGFP-mRNA; peptide/siRNA ratio 10:1): 26 + 2% | Remaining eGFP-mRNA in % of mock-transfected controls (eGFP-mRNA; peptide/siRNA ratio 12:1): 22 ± 4% | Remaining eGFP-mRNA in % of mock-transfected controls (eGFP-mRNA; peptide/siRNA ratio 14:1): 43 ± 5%

HLFRHLLRLLRRLWHLLHRA [AP-14]
remaining E6AP mRNA (in % of mock) [1, 2]: 56 ± 21% | Remaining eGFP-mRNA in % of mock-transfected controls (eGFP-mRNA; peptide/siRNA ratio 8:1): 41 ± 2% | Remaining eGFP-mRNA in % of mock-transfected controls (eGFP-mRNA; peptide/siRNA ratio 10:1): 41 ± 12% | Remaining eGFP-mRNA in % of mock-transfected controls (eGFP-mRNA; peptide/siRNA ratio 12:1): 19 ± 2% | Remaining eGFP-mRNA in % of mock-transfected controls (eGFP-mRNA; peptide/siRNA ratio 14:1): 39 ± 7%

RLFPALLRLLRRLWRLLLRA [AP-6]
remaining E6AP mRNA (in % of mock) [1, 2]: 41 ± 11% | Remaining eGFP-mRNA in % of mock-transfected controls (eGFP-mRNA; peptide/siRNA ratio 8:1): 62 ± 9% | Remaining eGFP-mRNA in % of mock-transfected controls (eGFP-mRNA; peptide/siRNA ratio 10:1): 36 ± 8% | Remaining eGFP-mRNA in % of mock-transfected controls (eGFP-mRNA; peptide/siRNA ratio 12:1): 63 ± 18% | Remaining eGFP-mRNA in % of mock-transfected controls (eGFP-mRNA; peptide/siRNA ratio 14:1): 54 ± 9%

RLFRALLRLLRRLWRLLRRA [AP-7]
remaining E6AP mRNA (in % of mock) [1, 2]: 134 ± 19%

RLFRALLRLLRSLWRLLLRA [AP-1]
cell viability (cell viability): None of these peptides led to a significant alteration of cell viability

RLFRALLRLLRSLWRLLLRAHHHHH [AP-27]
cell viability (cell viability): None of these peptides led to a significant alteration of cell viability

RLFRALLRLLRSLWRLLLRAHHHHHHHHHH [AP-34]
cell viability (cell viability): None of these peptides led to a significant alteration of cell viability

RLFRALLRLLRSLWRLLRRAHHHHH [AP-28]
remaining E6AP mRNA (in % of mock) [1, 3]: 105 ± 13% | remaining E6AP mRNA (in % of mock) [1, 4]: 30 ± 9% | remaining E6AP mRNA (in % of mock) [1, 5]: 18 ± 2%

RLFRALRRLLRRLWRLLRRA [AP-8]
remaining E6AP mRNA (in % of mock) [1, 2]: 170 ± 44%
